# Assay results reported in patent publication US9434734B2, “Substituted pyrazoloquinazolinones and pyrroloquinazolinones as allosteric modulators of group II metabotropic glutamate receptors” (Domain Therapeutics, priority 2012, dated 2016).
# Where a name gives a salt, the structure may show the parent alone.
# Tested on: not given
# Test: not given
# Details: not given
row,melting point,SMILES
1,> 250 °C,"Cc1cncc(-c2ccc3c(=O)n(C)c4cc(-c5cc(C)nc(C)c5)nn4c3c2)c1 (as salt: salt) [Example 118, 2-(2,6-Dimethyl-pyridin-4-yl)-4-methyl-8-(5-methyl-pyridin-3-yl)-4H-pyrazolo[1,5-a]quinazolin-5-one]"
2,> 250 °C,"Cc1cc(-c2cc3n(C)c(=O)c4ccc(-c5cnccc5C)cc4n3n2)cc(C)n1 (as salt: salt) [Example 119, 2-(2,6-Dimethyl-pyridin-4-yl)-4-methyl-8-(4-methyl-pyridin-3-yl)-4H-pyrazolo[1,5-a]quinazolin-5-one]"
3,> 250 °C,"CCc1ncccc1-c1ccc2c(=O)n(C)c3cc(-c4cc(C)nc(C)c4)nn3c2c1 (as salt: salt) [Example 120, 2-(2,6-Dimethyl-pyridin-4-yl)-8-(2-ethyl-pyridin-3-yl)-4-methyl-4H-pyrazolo[1,5-a]quinazolin-5-one]"
4,> 250 °C,"Cc1cc(-c2cc3n(C)c(=O)c4ccc(-c5cccnc5C)cc4n3n2)ccn1 (as salt: salt) [Example 132, 2-(2-methyl-pyridin-4-yl)-4-methyl-8-(2-methyl-pyridin-3-yl)-4H-pyrazolo[1,5-a]quinazolin-5-one]"
5,> 250 °C,"Cc1cc(-c2cc3n(C)c(=O)c4ccc(-c5cc(C)nc(C)c5)cc4n3n2)ccn1 (as salt: salt) [Example 133, 8-(2,6-Dimethyl-pyridin-4-yl)-4-methyl-2-(2-methyl-pyridin-4-yl)-4H-pyrazolo[1,5-a]quinazolin-5-one]"
6,> 250 °C,"Cc1ncccc1-c1ccc2c(=O)n(C)c3cc(-c4cccnc4)nn3c2c1 (as salt: salt) [Example 134, 4-Methyl-8-(2-methyl-pyridin-3-yl)-2-pyridin-3-yl-4H-pyrazolo[1,5-a]quinazolin-5-one]"
7,219 to 227 °C,"Cn1c(=O)c2ccc(-c3cccc(-c4nn[nH]n4)c3)cc2n2nc(C3CCOCC3)cc12 (as salt: sodium) [Example 96, 4-Methyl-2-(tetrahydro-pyran-4-yl)-8-[3-(2H-tetrazol-5-yl)-phenyl]-4H-pyrazolo[1,5-a]quinazolin-5-one]"
8,211 to 213 °C,"COc1ccc(-c2ccc3c(=O)n(C)c4cc(-c5cnn(C)c5)nn4c3c2)cc1 [Example 125, 8-(4-Methoxy-phenyl)-4-methyl-2-(1-methyl-1H-pyrazol-4-yl)-4H-pyrazolo[1,5-a]quinazolin-5-one]"
9,> 250 °C,"Cn1c(=O)c2ccc(-c3cccnc3C(F)(F)F)cc2n2nc(-c3ccnc(C(F)(F)F)c3)cc12 [Example 142, 4-Methyl-2-(2-trifluoromethyl-pyridin-4-yl)-8-(2-trifluoromethyl-pyridin-3-yl)-4H-pyrazolo[1,5-a]quinazolin-5-one]"

# Further lines, the compound ahead of its results:
row,SMILES,melting point
1,"Cn1c(=O)c2ccc(-c3cccc(-c4nn[nH]n4)c3)cc2n2nc(-c3ccccc3)cc12 (as salt: sodium) [Example 36, 4-Methyl-2-phenyl-8-[3-(2H-tetrazol-5-yl)-phenyl]-4H-pyrazolo[1,5-a]quinazolin-5-one]",> 250 °C
2,"Cl.Cn1c(=O)c2ccc(-c3ccc(N)nc3)cc2n2nc(-c3ccccc3)cc12 [Example 2, 8-(6-Amino-pyridin-3-yl)-4-methyl-2-phenyl-4H-pyrazolo[1,5-a]quinazolin-5-one]",241 to 244 °C
3,"COc1ccc(-c2ccc3c(=O)n(C)c4cc(-c5ccccc5)nn4c3c2)cc1 [Example 7, 8-(4-Methoxy-phenyl)-4-methyl-2-phenyl-4H-pyrazolo[1,5-a]quinazolin-5-one]",> 250 °C
4,"COCc1cccc(-c2ccc3c(=O)n(C)c4cc(-c5ccccc5)nn4c3c2)c1 [Example 9, 8-(3-Methoxymethyl-phenyl)-4-methyl-2-phenyl-4H-pyrazolo[1,5-a]quinazolin-5-one]",132 to 134 °C
5,"COc1cccc(-c2ccc3c(=O)n(C)c4cc(-c5ccccc5)nn4c3c2)c1 [Example 11, 8-(3-Methoxy-phenyl)-4-methyl-2-phenyl-4H-pyrazolo[1,5-a]quinazolin-5-one]",182 to 185 °C
6,"Cn1c(=O)c2ccc(-c3ccc(F)cc3)cc2n2nc(-c3ccccc3)cc12 [Example 12, 8-(4-Fluoro-phenyl)-4-methyl-2-phenyl-4H-pyrazolo[1,5-a]quinazolin-5-one]",178 to 180 °C
7,"Cn1c(=O)c2ccc(-c3nn[nH]n3)cc2n2nc(-c3ccccc3)cc12 [Example 22, 4-Methyl-2-phenyl-8-(2H-tetrazol-5-yl)-4H-pyrazolo[1,5-a]quinazolin-5-one]",> 250 °C
8,"CC(C)Cn1c(=O)c2ccc(-c3cccc(S(=O)(=O)N(C)C)c3)cc2n2nc(-c3ccccc3)cc12 [Example 41, 3-(4-isobutyl-5-oxo-2-phenyl-4,5-dihydro-pyrazolo[1,5-a]quinazolin-8-yl)-N,N-dimethyl-benzenesulfonamide]",159 to 163 °C
9,"Cn1c(=O)c2ccc(-c3cn[nH]c3)cc2n2nc(C3CCOCC3)cc12 [Example 87, 4-Methyl-8-(1H-pyrazol-4-yl)-2-(tetrahydro-pyran-4-yl)-4H-pyrazolo[1,5-a]quinazolin-5-one]",> 250 °C

# Molecular target: T1, human mGluR2 (hmGluR2) transiently over-expressed in HEK-293 cells (Homo sapiens, UniProt Q14416)
# T1 construct: expressed in transfected cells; host or cells: HEK-293 cells, transient co-transfection by electroporation
# T1 sequence (Q14416 19-872): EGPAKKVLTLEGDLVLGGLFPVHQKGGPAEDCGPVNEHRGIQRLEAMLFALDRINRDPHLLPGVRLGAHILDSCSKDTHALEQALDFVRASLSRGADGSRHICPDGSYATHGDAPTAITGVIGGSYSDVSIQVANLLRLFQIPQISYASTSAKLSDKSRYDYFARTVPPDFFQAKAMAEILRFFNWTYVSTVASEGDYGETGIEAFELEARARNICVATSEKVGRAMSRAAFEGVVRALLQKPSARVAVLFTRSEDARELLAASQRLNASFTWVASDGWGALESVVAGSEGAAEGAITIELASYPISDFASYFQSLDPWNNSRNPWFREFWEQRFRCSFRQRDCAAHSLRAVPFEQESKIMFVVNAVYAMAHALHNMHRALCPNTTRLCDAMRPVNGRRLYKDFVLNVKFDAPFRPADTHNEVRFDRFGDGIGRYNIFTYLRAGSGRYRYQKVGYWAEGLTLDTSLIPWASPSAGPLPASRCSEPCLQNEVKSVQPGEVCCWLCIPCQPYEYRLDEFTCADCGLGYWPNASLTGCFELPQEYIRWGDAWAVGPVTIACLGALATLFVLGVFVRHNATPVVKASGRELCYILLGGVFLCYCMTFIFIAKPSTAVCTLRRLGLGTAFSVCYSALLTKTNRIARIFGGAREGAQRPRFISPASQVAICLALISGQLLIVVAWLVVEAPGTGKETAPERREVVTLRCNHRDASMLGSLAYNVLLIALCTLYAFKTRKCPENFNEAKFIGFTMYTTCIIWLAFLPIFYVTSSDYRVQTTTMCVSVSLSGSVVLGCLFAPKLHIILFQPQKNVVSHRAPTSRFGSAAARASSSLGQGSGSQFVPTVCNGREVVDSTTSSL
# Test: Human mGluR2 negative allosteric modulator evaluation using Ca++ functional assay (agonist and NAM activity)
# Assay type: cell-based
# Details: hmGluR2 in HEK-293 cells, EC80 glutamate, Fluo4AM calcium readout; read-out: mGluR2 negative allosteric modulator activity IC50
# Protocol: Human mGluR2 Negative Allosteric Modulator Evaluation Using Ca^++ Functional Assay
# Compounds of the present invention were tested successively for their agonist and negative allosteric modulator activities on human mGluR2 (hmGluR2) transiently over-expressed in HEK-293 cells. They exert agonist activity if they are able to activate mGluR2 by themselves, i.e., in absence of the endogenous agonist glutamate; and they exert negative allosteric modulator activity if they decrease the action of the endogenous agonist glutamate.
# HEK-293 cells were maintained in Modified Eagle's Medium supplemented with 10% Foetal Calf Serum, 1% Penicillin/Streptomycin and 1% nonessential amino acids at 37° C./5% CO2.
# Cells were plated after transfection onto polyornithine coated, clear bottom, black-walled, 96-well plates and cultured for 24 h.
# Receptor activity was detected by changes in intracellular calcium measured using the fluorescent Ca^2+ sensitive dye, Fluo4AM (Molecular Probes).
# The day of the assay, medium was aspirated and replaced during 3 hours by medium without serum supplemented with 1% Glutamax, 1% Penicillin/Streptomycin and 1% nonessential amino acids. Then, cells were washed with freshly prepared buffer B (HBSS 1× (PAA), Hepes 20 mM, MgSO4-7H2O 1 mM, Na2CO3 3.3 mM, CaCl2-2H2O 1.3 mM, 0.5% BSA, Probenecid 2.5 mM) and loaded at 37° C./5% CO2 for 1.5 hours with buffer B containing 1 μM Fluo4AM, 0.1 mg/mL Pluronic Acid, 7 μg/mL Glutamate Pyruvate Transaminase and 2 mM sodium pyruvate. Afterwards cells were washed twice with buffer B and 50 μL of this buffer were added to each well.
# Agonist and negative allosteric modulator activities of compounds were consecutively evaluated on the same cells plate. […] Then, the cells were stimulated by an EC80 glutamate concentration and fluorescence was recorded for additional 60 s. EC80 glutamate concentration is the concentration giving 80% of the maximal glutamate response. Agonist and/or negative allosteric modulator activity(ies) were evaluated in comparison to basal signal or signal evoked by EC80 glutamate alone, respectively.
# For potency determination, a dose-response test was performed using 8 concentrations of each compound of the invention. Dose-response curves were fitted using the sigmoidal dose-response (variable slope) analysis in GraphPad Prism program (Graph Pad Inc) and EC50 of agonist/IC50 of negative allosteric modulator activity was calculated. Dose-response experiments were all performed in duplicate, two times independently.
row,IC50,SMILES
1,< 1 µM,"Cc1cc(-c2ccc3c(=O)n(C)c4cc(C5CCOCC5)nn4c3c2)ccn1 [Example 93, 4-Methyl-8-(2-methyl-pyridin-4-yl)-2-(tetrahydro-pyran-4-yl)-4H-pyrazolo[1,5-a]quinazolin-5-one]"
2,< 1 µM,"Cc1ccc(-c2ccc3c(=O)n(C)c4cc(C5CCOCC5)nn4c3c2)cn1 [Example 95, 4-Methyl-8-(6-methyl-pyridin-3-yl)-2-(tetrahydro-pyran-4-yl)-4H-pyrazolo[1,5-a]quinazolin-5-one]"
3,< 1 µM,"Cn1c(=O)c2ccc(-c3cccc(S(N)(=O)=O)c3)cc2n2nc(C3CCOCC3)cc12 [Example 100, 3-[4-Methyl-5-oxo-2-(tetrahydro-pyran-4-yl)-4,5-dihydro-pyrazolo[1,5-a]quinazolin-8-yl]-benzenesulfonamide]"
4,< 1 µM,"Cc1cc(-c2ccc3c(=O)n(C)c4cc(C5CCCO5)nn4c3c2)cc(C)n1 (stereo not drawn) [Example 107, 8-(2,6-Dimethyl-pyridin-4-yl)-4-methyl-2-(tetrahydro-furan-2-yl)-4H-pyrazolo[1,5-a]quinazolin-5-one]"
5,< 1 µM,"Cc1cc(-c2cc3n(C)c(=O)c4ccc(-c5ccc(N)nc5)cc4n3n2)cc(C)n1 [Example 112, 8-(6-Amino-pyridin-3-yl)-2-(2,6-dimethyl-pyridin-4-yl)-4-methyl-4H-pyrazolo[1,5-a]quinazolin-5-one]"
6,< 1 µM,"Cc1cc(-c2cc3n(C)c(=O)c4ccc(-c5cccnc5C)cc4n3n2)cc(C)n1 [Example 113, 2-(2,6-Dimethyl-pyridin-4-yl)-4-methyl-8-(2-methyl-pyridin-3-yl)-4H-pyrazolo[1,5-a]quinazolin-5-one]"

# Further lines, the compound ahead of its results:
row,SMILES,IC50
1,"Cn1c(=O)c2ccc(-c3ccc(N)nc3)cc2n2nc(C(C)(C)C)cc12 [Example 52, 8-(6-Amino-pyridin-3-yl)-2-tert-butyl-4-methyl-4H-pyrazolo[1,5-a]quinazolin-5-one]",< 1 µM
2,"Cl.[2H]C([2H])([2H])n1c(=O)c2ccc(-c3ccc(N)nc3)cc2n2nc(CCOC)cc12 [Example 55, 8-(6-Amino-pyridin-3-yl)-2-(2-methoxy-ethyl)-4-methyl(D3)-4H-pyrazolo[1,5-a]quinazolin-5-one]",< 1 µM
3,"Cl.[2H]C([2H])([2H])n1c(=O)c2ccc(-c3ccc(N)nc3)cc2n2nc(C3CCCC3)cc12 [Example 67, 8-(6-Amino-pyridin-3-yl)-2-cyclopentyl-4-methyl(D3)-4H-pyrazolo[1,5-a]quinazolin-5-one]",< 1 µM
4,"Cl.[2H]C([2H])([2H])n1c(=O)c2ccc(-c3cc(C)nc(C)c3)cc2n2nc(C3CCCC3)cc12 [Example 68, 2-Cyclopentyl-8-(2,6-dimethyl-pyridin-4-yl)-4-methyl(D3)-4H-pyrazolo[1,5-a]quinazolin-5-one]",< 1 µM
5,"Cn1c(=O)c2ccc(-c3ccc(N)nc3)cc2n2nc(C3CCCCCC3)cc12 [Example 76, 8-(6-Amino-pyridin-3-yl)-2-cycloheptyl-4-methyl-4H-pyrazolo[1,5-a]quinazolin-5-one]",< 1 µM
6,"CCn1c(=O)c2ccc(-c3cc(C)nc(C)c3)cc2n2nc(C3CCCCCC3)cc12 [Example 78, 2-Cycloheptyl-8-(2,6-dimethyl-pyridin-4-yl)-4-ethyl-4H-pyrazolo[1,5-a]quinazolin-5-one]",< 1 µM
